From US5594006A, “Carbostyril derivatives as matrix metalloproteinases inhibitors” (Otsuka Pharmaceutical Co., Ltd., priority 1993, dated 1997)

Tests used:
Stromelysin = target: T1, Stromelysin (Mus musculus, UniProt P28862); assay: Stromelysin inhibiting activity (fluorescence labeled casein); type: biochemical; settings: from mouse colon cancer cell (Colon 26); 3 hours at 37° C., pH 7.5
T1 construct: endogenous in cells; host or cells: Colon 26 (mouse colon cancer cells), culture supernatant, purified
Experimental: (1) Measuring Method of Stromelysin Inhibiting Activity
Inhibiting of Stromelysin refined from the culture supernatant of mouse colon cancer cell (Colon 26 cell) was measured by using fluorescence labeled casein, according to the method proposed by Miyazaki et al. (J. Biochem., 108, 537-543, 1990), and S. S. Twining [Fed. Proc., 42, 1951 (1984)].
The enzyme was activated by incubating for 2 hours at 37° C. in 1 mM mercury (II) p-aminophenylacetate. The test compound was used by dissolving in dimethyl sulfoxide. The enzyme reaction was started by adding the activated enzyme in a solution of 50 mM TRIS-hydrochloric acid (pH 7.5), 10 mM CaCl2, and 0.1% (v/v) dimethyl sulfoxide containing the test compound and 0.25% (w/v) of fluorescence labeled casein as substrate. The reaction was conducted for 3 hours at 37° C., and stopped by adding an equivalent amount of 5% (w/v) trichloroacetic acid solution. Afterwards, by centrifugal separation for 15 minutes at 3000 rpm, 4° C., the undigested substrate was precipitated, and to 1 part by volume of the obtained supernatant, 4 parts by volume of 0.3M phosphate buffer (pH 8.5) was added, and the fluorescence intensity was measured at 520 nm (Em)/495 nm (Ex), and the decomposition volume was quantitatively determined.
(§1) The enzyme inhibiting activity was expressed by the concentration (IC50) of the test compound wherein the enzyme activity of known amount was inhibited till 50%.

Interstitial collagenase = target: T2, Interstitial collagenase (Homo sapiens, UniProt P03956); assay: Interstitial collagenase inhibiting activity (fluorescence labeled collagen); type: biochemical; settings: from human fibroblast cell (Detroit 551); 2 hours at 35° C., pH 7.5
T2 construct: endogenous in cells; host or cells: Detroit 551 (human fibroblasts), culture supernatant, purified
T2 sequence (P03956 100-469): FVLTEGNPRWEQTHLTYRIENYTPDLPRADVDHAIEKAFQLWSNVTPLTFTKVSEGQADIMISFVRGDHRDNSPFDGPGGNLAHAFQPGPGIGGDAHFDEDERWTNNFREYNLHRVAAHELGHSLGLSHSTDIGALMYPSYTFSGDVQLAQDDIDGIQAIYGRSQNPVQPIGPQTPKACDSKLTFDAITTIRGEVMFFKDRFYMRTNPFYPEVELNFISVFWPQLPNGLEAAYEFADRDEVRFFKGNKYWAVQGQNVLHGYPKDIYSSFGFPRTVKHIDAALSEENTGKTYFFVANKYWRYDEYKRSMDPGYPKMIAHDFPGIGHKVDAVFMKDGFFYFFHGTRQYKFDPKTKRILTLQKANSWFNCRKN
Experimental: (2) Measuring Method of Interstitial Collagenase Inhibiting Activity
Inhibiting of interstitial collagenase refined from the culture supernatant of human fibroblast cell (Detroit 551 cell) was measured by using fluorescence labeled collagen, according to the method proposed by Nagai et al. [Inflammation, 4 (2), 123 (1984)].
The enzyme was activated by incubating for 3 hours at 37° C. in 1 mM mercury (II) p-aminophenylacetate. The test compound was used by dissolving in dimethyl sulfoxide. The enzyme reaction was started by adding the activated enzyme in 50 mM TRIS-hydrochloric acid (pH 7.5), 0.2M NaCl, 5 mM CaCl2, 0.02% (w/v) NaN3, 2.5 mM acetic acid, and 0.1% (v/v) dimethyl sulfoxide solution containing the test compound and 0.025% (w/v) of fluorescence labeled collagen as substrate. The reaction was conducted for 2 hours at 35° C., and stopped by adding ice-chilled 80 mM O-phenanthroline, 50% (v/v) ethanol solution by 1/20 amount. To this, moreover, an equivalent volume of 50 mM TRIS-hydrochloric acid (pH 7.5), 0.2M NaCl, 5 mM CaCl2, 0.02% (w/v) NaN3 solution was added to incubate further for 1 hour at 35° C. to degenerate specifically only the digestion product, and the digestion product was extracted by adding 0.17M TRIS-hydrochloric acid (pH 9.5), 0.67M NaCl solution including an equivalent amount of 70% (v/v) ethanol, and afterwards, by centrifugal separation for 15 minutes at 3000 rpm, 4° C., the undigested substrate was precipitated. The fluorescence intensity of the obtained supernatant was measured at 520 nm (Em)/495 nm (Ex), and the decomposition volume was quantitatively determined.
as §1

T1 sequence (P28862 100-477): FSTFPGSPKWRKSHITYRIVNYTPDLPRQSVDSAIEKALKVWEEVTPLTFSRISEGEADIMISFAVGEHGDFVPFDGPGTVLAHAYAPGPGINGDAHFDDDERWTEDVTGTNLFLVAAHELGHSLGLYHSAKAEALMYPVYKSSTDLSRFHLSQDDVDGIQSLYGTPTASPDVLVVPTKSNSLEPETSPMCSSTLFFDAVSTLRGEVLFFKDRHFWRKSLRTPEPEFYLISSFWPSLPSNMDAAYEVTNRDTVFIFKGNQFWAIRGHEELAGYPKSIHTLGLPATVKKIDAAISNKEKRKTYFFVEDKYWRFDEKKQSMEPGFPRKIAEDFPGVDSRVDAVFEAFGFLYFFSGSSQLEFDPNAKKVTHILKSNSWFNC

Compound | IC50 (Stromelysin) [nM] | IC50 (Interstitial collagenase) [nM]
CCOC(=O)CN1C(=O)[C@@H](NC(=O)[C@@H](CC(=O)NO)CC(C)C)Cc2ccccc21 [Test compound 8, 1-ethoxycarbonylmethyl-3S-[4-(N-hydroxyamino)-2R-isobutylsuccinyl]amino-3,4-dihydrocarbostyril] | 380 | 160
CON1C(=O)[C@@H](NC(=O)[C@H](CC(C)C)[C@H](C)C(=O)NO)Cc2ccccc21 [Test compound 9, 3S-[4-(N-hydroxyamino)-2R-isobutyl-3S-methylsuccinyl]amino-1-methoxy-3,4-dihydrocarbostyril] | 36 | 22
CC(C)C[C@H](CC(=O)NO)C(=O)N[C@H]1Cc2ccccc2N(CC(N)=O)C1=O [Test compound 10, 1-aminocarbonylmethyl-3S-[4-(N-hydroxyamino)-2R-isobutylsuccinyl]amino-3,4-dihydrocarbostyril] | 200 | 31
COC(=O)c1ccc(CN2C(=O)[C@@H](NC(=O)[C@@H](CC(=O)NO)CC(C)C)Cc3ccccc32)cc1 [Test compound 11, 3S-[4-(N-hydroxyamino)-2R-isobutylsuccinyl]amino-1-(4-methoxycarbonylbenzyl)-3,4-dihydrocarbostyril] | 290 | 750
CCN1C(=O)[C@@H](NC(=O)[C@@H](CC(=O)NO)CC(C)C)Cc2ccccc21 [Test compound 12, 1-ethyl-3S-[4-(N-hydroxyamino)-2R-isobutylsuccinyl]amino-3,4-dihydrocarbostyril] | 700 | 290
C=CCN1C(=O)[C@@H](NC(=O)[C@H](CC(C)C)[C@H](C)C(=O)NO)Cc2ccccc21 [Test compound 13, 1-allyl-3S-[4-(N-hydroxyamino)-2R-isobutyl-3S-methylsuccinyl]amino-3,4-dihydrocarbostyril] | 28 | 10
COCN1C(=O)[C@@H](NC(=O)[C@@H](CC(=O)NO)CC(C)C)Cc2ccccc21 [Test compound 14, 3S-[4-(N-hydroxyamino)-2R-isobutylsuccinyl]amino-1-methoxymethyl-3,4-dihydrocarbostyril] | 37 | 22
C#CCN1C(=O)[C@@H](NC(=O)[C@H](CC(C)C)[C@H](C)C(=O)NO)Cc2ccccc21 [Test compound 15, 3S-[4-(N-hydroxyamino)-2R-isobutyl-3S-methylsuccinyl]amino-1-(2-propynyl)-3,4-dihydrocarbostyril] | – | 20
CC(C)C[C@@H](C(=O)N[C@H]1Cc2ccccc2N(CC(=O)O)C1=O)[C@H](C)C(=O)NO [Test compound 16, 1-carboxymethyl-3S-[4-(N-hydroxyamino)-2R-isobutyl-3S-methylsuccinyl]amino-3,4-dihydrocarbostyril] | – | 69
CCON1C(=O)[C@@H](NC(=O)[C@@H](CC(=O)NO)CC(C)C)Cc2ccccc21 [Test compound 17, 1-ethoxy-3S-[4-(N-hydroxyamino)-2R-isobutylsuccinyl]amino-3,4-dihydrocarbostyril] | – | 41
COCCOCN1C(=O)[C@@H](NC(=O)[C@@H](CC(=O)NO)CC(C)C)Cc2ccccc21 [Test compound 18, 3S-[4-(N-hydroxyamino)-2R-isobutylsuccinyl]amino-1-methoxyethoxymethyl-3,4-dihydrocarbostyril] | – | 88
CCCCCCC[C@H](CC(=O)NO)C(=O)N[C@H]1Cc2ccccc2N(OC)C1=O [Test compound 20, 3S-[4-(N-hydroxyamino)-2R-heptylsuccinyl]amino-1-methoxy-3,4-dihydrocarbostyril] | – | 220
COCCN1C(=O)[C@@H](NC(=O)[C@@H](CC(=O)NO)CC(C)C)Cc2ccccc21 [Test compound 21, 3S-[4-(N-hydroxyamino)-2R-isobutylsuccinyl]amino-1-methoxyethyl-3,4-dihydrocarbostyril] | – | 110
CCOCC[C@H](CC(=O)NO)C(=O)N[C@H]1Cc2ccccc2N(OC)C1=O [Test compound 22, 3S-[4-(N-hydroxyamino)-2R-ethoxyethylsuccinyl]amino-1-methoxy-3,4-dihydrocarbostyril] | – | 3700
CON1C(=O)[C@@H](NC(=O)[C@H](CC(C)C)C(Cc2ccc3c(c2)OCO3)C(=O)NO)Cc2ccccc21 (stereo partly drawn) [Test compound 23, 3S-[4-(N-hydroxyamino)-2R-isobutyl-3-(3,4-methylenedioxybenzyl)succinyl]amino-1-methoxy-3,4-dihydrocarbostyril] | – | 0.064
COCCN1C(=O)[C@@H](NC(=O)[C@@H](CC(=O)NO)CC(C)C)Cc2cc3c(cc21)OCO3 [Test compound 24, 3S-[4-(N-hydroxyamino)-2R-isobutylsuccinyl]amino-1-methoxyethyl-6,7-methylenedioxy-3,4-dihydrocarbostyril] | – | 740
COCCN1C(=O)[C@H](NC(=O)[C@@H](CC(=O)NO)CC(C)C)Cc2cc3c(cc21)OCO3 [Test compound 25, 3R-[4-(N-hydroxyamino)-2R-isobutylsuccinyl]amino-1-methoxyethyl-6,7-methylenedioxy-3,4-dihydrocarbostyril] | – | 4100
COCCN1C(=O)C(NC(=O)[C@@H](CC(=O)NO)CC(C)C)Cc2cc3c(cc21)OCO3 (stereo partly drawn) [Test compound 26, 3-[4-(N-hydroxyamino)-2R-isobutylsuccinyl]amino-1-methoxyethyl-6,7-methylendioxy-3,4-dihydrocarbostyril] | – | 1000
CCN1C(=O)[C@@H](NC(=O)[C@@H](CC(=O)NO)CC(C)C)Cc2cc3c(cc21)OCO3 [Test compound 28, 1-ethyl-3S-[4-(N-hydroxyamino)-2R-isobutylsuccinyl]amino-6,7-methylenedioxy-3,4-dihydrocarbostyril] | – | 87
CCCCC[C@H](CC(=O)NO)C(=O)N[C@H]1Cc2ccccc2N(OC)C1=O [Test compound 30, 3S-[4-(N-hydroxyamino)-2R-pentylsuccinyl]amino-1-methoxy-3,4-dihydrocarbostyril] | – | 11
COCON1C(=O)[C@@H](NC(=O)[C@@H](CC(=O)NO)CC(C)C)Cc2ccccc21 [Test compound 31, 3S-[4-(N-hydroxyamino)-2R-isobutylsuccinyl]amino-1-methoxymethoxy-3,4-dihydrocarbostyril] | – | 370
